The values that follow are results of earlier work, collected in publication PMC10071776, “Binding proteins of destruxin A from Metarhizium against insect cell” (BMC Microbiology, 2023).

For data set [1] the following is noted: stated in SPR method; no measurement described, no reference given. Background: In SPR one partner is held on a chip, and binding of the other changes the refractive index at the surface.
Data set [2] relates to insects. As to conditions: no reference given. From the text:
(§1) The multi-target strategy of destruxin has resulted from the evolution of interactions between Metarhizium spp. and insects. When Metarhizium spp. invades a host insect, it secretes a variety of structurally similar destruxins that attack as many tissues and organs. These produce a diseased state, weakening insect resistance and enabling successfully fungus colonization.

The test system of data set [3] is tumor. Conditions: no reference given.
Source text: as §1

Data set [4] has as its system hemocyte ATPase. As to conditions: higher than DA; ref [13].
Source text: as §1

Where a SMILES comes first, the peptide text is derived from it. [ ]: non-standard residue; d: D form. dLac(3-vinyl) = C=CC[C@@H](O)C(=O)O; NMeV = CN[C@H](C(=O)O)C(C)C; NMeA = CN[C@@H](C)C(=O)O; βAla = NCCC(=O)O

With `C=CC[C@H]1OC(=O)CCNC(=O)[C@H](C)N(C)C(=O)[C@H](C(C)C)N(C)C(=O)[C@H]([C@@H](C)CC)NC(=O)[C@@H]2CCCN2C1=O` [DA, Destruxin A] (cyclo(I[NMeV][NMeA][βAla][dLac(3-vinyl)]P)), the solubility in water result in data set [1] is “insoluble in water”.
On to destruxin B [DB], for which, in data set [2], the “insecticidal activity relative to DA” value is “lower insecticidal activity than DA”. Also, in data set [3], the “antitumor activity relative to DA” value is given as “greater antitumor activity than DA”. In addition, the “affinity of DB relative to DA” value in data set [4] is on record as 100 times.
